Starred links: 1 amine or outer side, 2 acyl side, 3 side chain; linkers in the order of their positions; H or OH if unused. Positions of bridges follow the written chain, without caps; N, C: chain ends. Non-standard residues stand in square brackets, D forms with d. Residues, ends and D or L forms follow the SMILES beside them. *: point of attachment. Phe(4-Cl) = N[C@@H](Cc1ccc(Cl)cc1)C(=O)O; 2Thi = N[C@@H](Cc1cccs1)C(=O)O; Agmatine = N=C(N)NCCCCN*; X1 = O=C(CCC[*:2])[*:1]; Mpa = O=C(O)CCS; NEt2 = CCN(CC)*
Assays:
Huh-7 = assay: Cytotoxicity against human Huh-7 cells assessed as inhibition of cell viability incubated for 24 hrs by MTT assay; format: functional
[1] = Plasma clearance in Sprague-Dawley rat at 1 mg/kg, iv measured upto 24 hrs by LC-MS/MS analysis; format: ADME, organism-based
[2] = Intrinsic clearance in human liver microsomes; format: ADME, Microsome
[3] = Microsomal stability in human liver microsomes assessed as intrinsic clearance; format: ADME, Microsome
[4] = AUC in Sprague-Dawley rat at 2 mg/kg, iv by LC-MS/MS analysis; format: ADME, organism-based; conditions: in vivo
[5] = AUC in Sprague-Dawley rat at 10 mg/kg, po by LC-MS/MS analysis; format: ADME, organism-based; conditions: in vivo
[6] = Half life in rat; format: ADME; conditions: in vivo
[7] = Half life in mouse; format: ADME, organism-based; conditions: in vivo
[8] = Half life in dog; format: ADME, Canis lupus familiaris; conditions: in vivo
[9] = Clearance in Sprague-Dawley rat at 0.5 mg/kg, iv by LC-MS/MS analysis; format: ADME, organism-based; conditions: in vivo
[10] = Oral bioavailability in Sprague-Dawley rat at 5 mg/kg by LC-MS/MS analysis; format: ADME, organism-based; conditions: in vivo
[11] = AUC in Wistar rat; format: ADME; conditions: in vivo
[12] = Oral bioavailability in human; format: ADME, organism-based; conditions: in vivo
in vitro = conditions: human, liver microsomes
[13] = Solubility of the compound; format: physicochemical
[14] = Cmax in human at 8 mg/kg, po; format: ADME, organism-based; conditions: in vivo
[15] = Plasma protein binding in human; format: ADME, cell-free; conditions: read-out: PPB

Question: For `COc1ccc2c(O[C@@H]3C[C@H]4C(=O)N[C@]5(C(=O)NS(=O)(=O)C6CC6)C[C@H]5/C=C\CCCCN(C)C(=O)[C@@H]4C3)cc(-c3ccccc3)nc2c1`, which CC50 (Huh-7) is on record?
Answer: > 20 µM

Question: And the clearance [1]?
Answer: 46.5 mL/min/kg

Question: And the CLH [2]?
Answer: 46 µL/min/mg

Question: For `COc1ccc2c(O[C@@H]3C[C@H]4C(=O)N[C@]5(C(=O)NS(=O)(=O)C6CC6)C[C@H]5/C=C\CCCCN(C)C(=O)[C@@H]4C3)cc(-c3nc(C(C)C)cs3)nc2c1C`, which CLH [3] is on record?
Answer: 6 µL/min/mg

Question: And the AUC [4]?
Answer: 5.21 µM·h

Question: And the AUC [5]?
Answer: 2.79 µM·h

Question: What does the source list for `C/C1=C/C=C/[C@H](C)[C@H](O)[C@@H](C)[C@@H](O)[C@@H](C)[C@H](OC(=O)O)[C@H](C)[C@@H](OO)/C=C/O[C@@]2(C)Oc3c(C)c(O)c4c(O)c(c(/C=N/N5CCC(N(C)C6([C@@H]7CCN(c8cc9c(C%10CC%10)cc(C(=O)O)c(=O)n9cc8F)C7)CC6)CC5)c(O)c4c3C2=O)CC1=O`?
Answer: half-life [6]: 24 min; half-life [7]: 24 min; half-life [8]: 96 min

Question: For `CC(C)[C@@H]1NC(=O)[C@H](Cc2ccccc2)NC(=O)[C@H](Cc2ccc(O)cc2)NC(=O)CCSSC[C@@H](C(=O)N2CCC[C@H]2C(=O)N[C@H](CCCNC(=N)N)C(=O)NCC(N)=O)NC(=O)[C@H](CC(N)=O)NC1=O` ([Mpa]YFVNCP[dR]G-NH2; disulfide 1-6), which clearance [9] is on record?
Answer: 9.6 mL/min/kg

Question: And the bioavailability [10]?
Answer: 31%

Question: For `CC(C)[C@@H]1NC(=O)[C@H](Cc2cccs2)NC(=O)[C@H](Cc2ccc(Cl)cc2)NC(=O)CCCSC[C@@H](C(=O)N2CCC[C@H]2C(=O)NCCCCNC(=N)N)NC(=O)[C@H](CC(N)=O)NC1=O` ([Phe(4-Cl)][2Thi]VNCP-Agmatine; linker N-5 via X1), which clearance [9] is on record?
Answer: 14 mL/min/kg

Question: Which clearance [9] does the source give for `CCN(CC)C(=O)[C@@H](CCCNC(=N)N)NC(=O)[C@@H]1CCCN1C(=O)[C@@H]1CSCCCC(=O)N[C@@H](Cc2ccc(Cl)cc2)C(=O)N[C@@H](Cc2cccs2)C(=O)N[C@@H](C(C)C)C(=O)N[C@@H](CC(N)=O)C(=O)N1` ([Phe(4-Cl)][2Thi]VNCP[dR]-NEt2; linker N-5 via X1) here?
Answer: 42 mL/min/kg

Question: With `NC(=O)CC[C@@H]1NC(=O)[C@H](Cc2ccccc2)NC(=O)[C@H](Cc2ccc(O)cc2)NC(=O)CCSSC[C@@H](C(=O)N2CCC[C@H]2C(=O)N[C@H](CCCN=C(N)N)C(=O)NCC(N)=O)NC(=O)[C@H](CC(N)=O)NC1=O` [DESMOPRESSIN] as the molecule, how does the bioavailability [10] read?
Answer: 41%

Question: Which AUC [11] does the source give for `C[C@H]1Oc2cc(cnc2N)-c2c(nn(C)c2C#N)CN(C)C(=O)c2ccc(F)cc21` [LORLATINIB] here?
Answer: 3.48 µM·h

Question: With `C[C@@H]1CCC[C@H](n2cnc(-c3cc(Cl)ccc3-n3cc(Cl)nn3)cc2=O)c2cc(ccn2)-c2c(cnn2C(F)F)NC1=O` [MILVEXIAN] as the molecule, how does the bioavailability [12] read?
Answer: 18%

Question: What does the source list for `C1=C/COCc2cc(ccc2OCCN2CCCC2)Nc2nccc(n2)-c2cccc(c2)COC/1` [PACRITINIB]?
Answer: half-life (in vitro): > 60 min; solubility [13]: > 150 µg/mL

Question: With `C[C@@H]1CN[C@@H](C2CC2)C(=O)N(C)[C@H](C)C(=O)N[C@H](Cc2ccc(F)cc2)C(=O)NCCCc2ccccc2O1` [ULIMORELIN] as the molecule, how does the Cmax [14] read?
Answer: 1400 nM

Question: Which fraction unbound [15] does the source give for `CN1C/C=C/CCOc2cccc(c2)-c2ccnc(n2)Nc2cccc(c2)C1` [ZOTIRACICLIB] here?
Answer: 0.001
